Measurements published in patent US10233180B2, “Substituted nitrogen-containing heterocyclic derivatives, pharmaceutical compositions comprising the same and applications of antitumor thereof” (ZHEJIANG UNIVERSITY, priority 2014, dated 2019).

Experiments:
Akt1 = target: T1, Akt1 (Homo sapiens, UniProt P31749); assay: AKT1/PKBα KinEASE FP Fluorescein Green Assay (fluorescence polarization kinase kit); type: biochemical; conditions: 1 h reaction, read-out: Inhibitory activities against Akt1 (IC50)
T1 construct: purchased 32-021
T1 sequence (P31749 whole entry): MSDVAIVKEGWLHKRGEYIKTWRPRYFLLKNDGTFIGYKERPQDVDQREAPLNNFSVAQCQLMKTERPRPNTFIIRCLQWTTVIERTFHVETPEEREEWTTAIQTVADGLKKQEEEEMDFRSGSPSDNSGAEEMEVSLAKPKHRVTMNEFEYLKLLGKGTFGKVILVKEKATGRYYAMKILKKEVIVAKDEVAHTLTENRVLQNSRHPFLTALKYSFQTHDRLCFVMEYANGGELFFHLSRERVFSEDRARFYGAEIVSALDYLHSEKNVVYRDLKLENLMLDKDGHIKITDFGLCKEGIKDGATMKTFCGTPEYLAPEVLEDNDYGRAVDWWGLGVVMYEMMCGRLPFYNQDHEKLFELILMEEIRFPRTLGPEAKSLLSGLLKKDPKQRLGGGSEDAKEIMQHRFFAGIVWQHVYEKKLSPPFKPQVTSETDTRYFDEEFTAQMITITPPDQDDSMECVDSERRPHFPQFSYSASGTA
How it was run: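 FP competition kinase assay: compounds (50 μM stock) with STK Substrate 3 and ATP, 1 h reaction at room temperature; stopped with stop/antibody mix, 4 h at room temperature, then polarization read. Inhibition derived from polarization values; IC50 calculated; triplicate wells.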

[1] = system: human colon cancer cell strain HCT-116; assay: MTT assay, inhibition of tumor cell growth in vitro, 72 h; type: cell-based; conditions: Homo sapiens, HCT-116, MTT, read-out: Antitumor proliferative activities of tumor cell (IC50, μM) HCT-116 (converted)
How it was run: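 Cells in RPMI 1640 with FBS, 4000 cells/well, exposed 72 h at 37 °C, 5% CO2 to final 50, 10, 2, 0.4 and 0.08 μM; 1% DMSO blank. MTT OD gives % inhibition versus control; IC50 derived by Bliss method.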

[2] = system: Human ovarian cancer cell strain OVCAR-8; assay: as above; type: cell-based; conditions: Homo sapiens, OVCAR-8, MTT, read-out: Antitumor proliferative activities of tumor cell (IC50, μM) OVCAR-8
How it was run: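 OVCAR8 cells in RPMI 1640 plus FBS were seeded at 4000 cells/well and exposed for 72 h at 37 °C to compound at 50, 10, 2, 0.4 and 0.08 μM final, with 1% DMSO as blank. Inhibition was calculated from OD relative to control, and IC50 was derived by the Bliss method.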

Row | IC50 (Akt1) [nM] | IC50 [1] [µM] | IC50 [2] [µM] | SMILES
1 | 3 | 3.68 | 4.02 | CNC(=O)CC1C[C@@H](c2ccc(Cl)c(Cl)c2)[C@H](NC(=O)c2cc(-c3c(Cl)cnn3C)c(Cl)o2)CN1 (stereo partly drawn) [Compound 118, 5-chloro-4-(4-chloro-1-methyl-1H-pyrazol-5-yl)-N-((3S,4S)-4-(3,4-dichlorophenyl)-6-(2-(methylamido)-2-oxoethyl)piperidin-3-yl)furan-2-formamide]
2 | 0.8 | 0.56 | 0.78 | Cn1ncc(Cl)c1-c1cc(C(=O)N[C@@H]2CNC(CCN3CCCC(O)C3)C[C@H]2c2ccc(Cl)c(Cl)c2)oc1Cl (stereo partly drawn) [Compound 115, 5-chloro-4-(4-chloro-1-methyl-1H-pyrazol-5-yl)-N-((3S,4S)-4-(3,4-dichlorophenyl)-6-(2-(3-hydroxylpiperidin-1-yl)ethyl)piperidin-3-yl)furan-2-formamide]
3 | 21 | 5.56 | 3.07 | Cn1ncc(Cl)c1-c1ccc(C(=O)N[C@@H]2CNCC[C@H]2c2cccc(F)c2)cc1OC(F)(F)F [Compound 85, 4-(4-chloro-1-methyl-1H-pyrazol-5-yl)-N-((3S,4S)-4-(3-fluorophenyl)piperidin-3-yl)-3-(trifluoromethoxy)benzamide]
4 | 5 | 2.81 | 1.11 | Cn1ncc(Cl)c1-c1ccc(C(=O)N[C@@H]2CNC(CCNS(C)(=O)=O)C[C@H]2c2cccc(F)c2)cc1Cl (stereo partly drawn) [Compound 103, 3-chloro-4-(4-chloro-1-methyl-1H-pyrazol-5-yl)-N-((3S,4S)-4-(3-fluorophenyl)-6-(2-(methylsulfonamido)ethyl)piperidin-3-yl)benzamide]
5 | 142 | 8.33 | 7.88 | Cc1nc(C(=O)N[C@H]2CNCC[C@@H]2C2CCCNC2)ccc1-c1c(Br)cnn1C (mixture of isomers) [Compound 59, 6-methyl-5-(4-bromo-1-methyl-1H-pyrazol-5-yl)-N-(3,4-trans-4-(piperidin-3-yl)piperidin-3-yl)pyridinyl-2-formamide]
6 | 0.2 | 5.82 | 0.47 | CC(=O)NCCC1C[C@@H](c2ccc(F)c(F)c2)[C@H](NC(=O)c2cc(-c3c(Cl)cnn3C)c(Cl)o2)CN1 (stereo partly drawn) [Compound 126, N-((3S,4S)-6-(2-acetaminoethyl)-4-(3,4-difluorophenyl)piperidin-3-yl)-5-chloro-4-(4-chloro-1-methyl-1H-pyrazol-5-yl)furan-2-formamide]
7 | 812 | 12.6 | 2.01 | Cc1cc(-c2c(Cl)cnn2C)cc(C(=O)N[C@H]2CNCC[C@@H]2c2ccccc2)n1 (relative stereo) [Compound 45, 6-methyl-4-(4-chloro-1-methyl-1H-pyrazol-5-yl)-N-(3,4-trans-4-phenylpiperidin-3-yl)pyridinyl-2-formamide]
8 | 48 | 10.8 | 5.79 | CC1CCC([C@H]2CCNC[C@@H]2NC(=O)c2ncc(-c3c(Cl)cnn3C)c(Cl)n2)CC1 (stereo partly drawn) [Compound 55, 4-chloro-5-(4-chloro-1-methyl-1H-pyrazol-5-yl)-N-(3,4-trans-4-(4-methylcyclohexane)piperidin-3-yl)pyrimidine-2-formamide]

The next lines start with the compound.

Row | SMILES | IC50 (Akt1) [nM] | IC50 [1] [µM] | IC50 [2] [µM]
9 | CCCC1C[C@@H](c2ccc(Cl)c(Cl)c2)[C@H](NC(=O)c2cc(-c3c(Cl)cnn3C)c(Cl)o2)CN1 (stereo partly drawn) [Compound 130, 5-chloro-4-(4-chloro-1-methyl-1H-pyrazol-5-yl)-N-((3S,4S)-4-(3,4-dichlorophenyl)-6-propylpiperidin-3-yl)furan-2-formamide] | 0.5 | 4.1 | 1.06
10 | Cn1ncc(Cl)c1-c1ccc(C(=O)N[C@@H]2CNCC[C@H]2c2ccc(F)c(F)c2)cc1Cl [Compound 78, 3-chloro-4-(4-chloro-1-methyl-1H-pyrazol-5-yl)-N-((3S,4S)-4-(3,4-difluorophenyl)piperidin-3-yl)benzamide] | 6 | 2.03 | 0.76
11 | Cc1cccc([C@H]2CCNC[C@@H]2NC(=O)c2cc(Cl)c(-c3ncnn3C)o2)c1 (racemic) [Compound 7, 4-chloro-5-(1-methyl-1H-1,2,4-triazol-5-yl)-N-(3,4-trans-4-(3-methylphenyl)piperidin-3-yl)furan-2-formamide] | 62 | 8.3 | 3.88
12 | CCc1c(-c2c(Cl)cnn2C)cc(C(=O)N[C@H]2CNCC[C@@H]2C2CCC(F)C2)n1C (stereo partly drawn) [Compound 15, 5-ethyl-1-methyl-4-(4-chloro-1-methyl-1H-pyrazol-5-yl)-N-(3,4-trans-4-(3-fluorocyclopentanyl)piperidin-3-yl)-1H-pyrrole-2-formamide] | 52 | 2.04 | 1.26
13 | Cn1ncc(Cl)c1-c1ccc(C(=O)N[C@@H]2CNCC[C@H]2c2cccc(F)c2)cc1Cl [Compound 86, 3-chloro-4-(4-chloro-1-methyl-1H-pyrazol-5-yl)-N-((3S,4S)-4-(3-fluorophenyl)piperidin-3-yl)benzamide] | 14 | 1.47 | 1.26
14 | Cn1ncc(Br)c1-c1coc(C(=O)N[C@H]2CNCC[C@@H]2c2ccc(C(F)(F)F)cc2)c1 (racemic) [Compound 27, 4-(4-bromo-1-methyl-1H-pyrazol-5-yl)-N-(3,4-trans-4-(4-trifluoromethylphenyl)piperidin-3-yl)furan-2-formamide] | 17 | 5.89 | 1.82
15 | Cn1ncc(CO)c1-c1ccc(C(=O)N[C@@H]2CNCC[C@H]2c2cccc(F)c2)s1 [Compound 141, N-((3S, 4S)-4-(3-fluorophenyl)piperidin-3-yl)-5-(4-(hydroxylmethyl)-1-methyl-1H-pyrazol-5-yl)thiophene-2-formamide] | 12 | 6.56 | 1.05
16 | Cn1ncc(Br)c1-c1csc(C(=O)N[C@H]2CNCC[C@@H]2c2ccc(Cl)cc2)c1 (racemic) [Compound 37, 4-(4-bromo-1-methyl-1H-pyrazol-5-yl)-N-(3,4-trans-4-(4-chlorphenyl)piperidin-3-yl)thiophene-2-formamide] | 52 | 2.24 | 5.36
17 | Cn1ncc(Br)c1-c1coc(C(=O)N[C@H]2CNCC[C@@H]2c2ccc(F)c(F)c2)c1 (racemic) [Compound 28, 4-(4-bromo-1-methyl-1H-pyrazol-5-yl)-N-(3,4-trans-4-(3,4-difluorophenyl)piperidin-3-yl)furan-2-formamide] | 62 | 11.8 | 3.38
18 | Cn1ncc(Cl)c1-c1cc(C(=O)N[C@@H]2CNC(CC(N)=O)C[C@H]2c2ccc(Cl)c(Cl)c2)oc1Cl (stereo partly drawn) [Compound 117, N-((3S,4S)-6-(2-amido-2-oxoethyl)-4-(3,4-dichlorophenyl)piperidin-3-yl)-5-chloro-4-(4-chloro-1-methyl-1H-pyrazol-5-yl)furan-2-formamide] | 3 | 4.28 | 0.92
19 | Cc1cnn(C)c1-c1cnc(C(=O)N[C@H]2CNCC[C@@H]2c2ccc(F)c(F)c2)cc1F [Compound 61, 4-fluoro-5-(1,4-dimethyl-1H-pyrazol-5-yl)-N-((3R,4R)-4-(3,4-difluorophenyl)piperidin-3-yl)pyridinyl-2-formamide] | 188 | 3.85 | 8.44
20 | CCc1cnn(C)c1-c1ccc(C(=O)N[C@@H]2CNCC[C@H]2c2cccc(F)c2)s1 [Compound 145, 5-(4-ethyl-1-methyl-1H-pyrazol-5-yl)-N-((3S, 4S)-4-(3-fluorophenyl)piperidin-3-yl)thiophene-2-formamide] | 4 | 1.47 | 1.06
21 | Cn1ncc(Cl)c1-c1cc(C(=O)N[C@@H]2CNC(CCNCC(O)CO)C[C@H]2c2ccc(Cl)c(Cl)c2)oc1Cl (stereo partly drawn) [Compound 123, 5-chloro-4-(4-chloro-1-methyl-1H-pyrazol-5-yl)-N-((3S,4S)-4-(3,4-dichlorophenyl)-6-(2-((2,3-dihydroxypropyl)amido)ethyl)piperidin-3-yl)furan-2-formamide] | 0.1 | 0.07 | 0.09
22 | Cn1nccc1-c1coc(C(=O)N[C@H]2CNCC[C@@H]2c2ccc(F)c(F)c2)c1 (racemic) [Compound 21, 4-(1-methyl-1H-pyrazol-5-yl)-N-(3,4-trans-4-(3,4-difluorophenyl)piperidin-3-yl)furan-2-formamide] | 119 | 21 | 10.7
23 | Cn1ncc(Cl)c1-c1sc(C(=O)N[C@@H]2CNCC[C@H]2c2cccc(F)c2)cc1Cl [Compound 139, 4-chloro-5-(4-chloro-1-methyl-1H-pyrazol-5-yl)-N-((3S, 4S)-4-(3-fluorophenyl)piperidin-3-yl)thiophene-2-formamide] | 0.7 | 2.51 | 1.44
24 | Cc1sc(C(=O)N[C@H]2CNCC[C@@H]2c2ccc(F)c(F)c2)nc1-c1c(Cl)cnn1C (racemic) [Compound 20, 4-(4-chloro-1-methyl-1H-pyrazol-5-yl)-N-(3,4-trans-4-(3,4-difluorophenyl)piperidin-3-yl)-5-methylthiazole-2-formamide] | 12 | 2.11 | 9.91
